The values below come from article PMC10223284, “Category-Based Toxicokinetic Evaluations of Data-Poor Per- and Polyfluoroalkyl Substances (PFAS) using Gas Chromatography Coupled with Mass Spectrometry” (Toxics, 2023).

The subject of data set [1] is human plasma.
A short description of data set [2]: Abiotic loss in negative controls of the hepatocyte clearance assay (cell-free media, metabolically inactivated hepatocytes). It counts as in vitro ADME. Particulars: flag for stability failure in hepatocyte clearance assay controls (1 or Fst = fail, 0 = pass). The procedure, abridged: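 Test compound at 1 μM incubated at 37 °C with shaking in complete William's medium E, either cell-free or with metabolically inactivated hepatocytes, then quenched with ice-cold acetonitrile for quantitative analysis.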

Data set [3] relates to human plasma. The source holds these as a separate data set.
Procedure: Three replicates were run per experiment, with 4NT included as a reference compound in each to evaluate assay performance. All PFAS and 4NT, prepared at a 3 mM working stock, were added to human plasma to achieve a final, thoroughly mixed assay concentration of 10 μM, incubated at 37 °C for 1 h with shaking. […] After UC, the aqueous fraction (AF; i.e., supernatant devoid of plasma proteins/lipoproteins/fatty acids) was collected and transferred to a new tube. The second aliquot maintained at 37 °C was collected (T5hr). At the relevant time points, each volume of sample was combined with 3 volumes of vigorously mixed ice-cold acetonitrile with the labeled IS and stored for 10 min at −20 °C prior to centrifugation at 12,000× g for 10 min at 4 °C. The supernatant was collected and stored at <−70 °C until quantitative analysis. […] Furthermore, chemical stability in plasma over the assay time course was assessed using the T1hr and T5hr samples.
Percent chemical remaining at the end of the UC assay (T5hr/T1hr) was used to remove unstable chemicals from further evaluation.

In the case of `C=C(C)C(=O)OCC(F)(F)C(F)(F)C(F)(F)F` [1H,1H-Perfluorobutyl methacrylate], in data set [1], the Fup.Med is listed as 0.716 and the Fup.point is recorded as 0.706. The compound further returned a Hep_Stab_Fail in data set [2] of 1. In data set [3], the Fstable.Med was 0.0018 and the Unstable result was “Y”. For the same compound, in data set [3] (human, plasma), the “% remaining_PPB” value came to 8% and the PPB_Stab_Fail was 1.
